From patent publication US12421242B2, “Substituted tetrahydropyrrolo-pyridinone compounds and their use in treating medical conditions” (Karuna Therapeutics, Inc., priority 2022, dated 2025)

Key:
rM4 receptors = target: T1, rM4 receptors (Rattus norvegicus, UniProt P08485); test: Rat M4 PAM pERK assay; format: cell-based; settings: PAM mode
T1 construct: expressed in transfected cells; host or cells: CHO cells
T1 sequence (P08485 1-478): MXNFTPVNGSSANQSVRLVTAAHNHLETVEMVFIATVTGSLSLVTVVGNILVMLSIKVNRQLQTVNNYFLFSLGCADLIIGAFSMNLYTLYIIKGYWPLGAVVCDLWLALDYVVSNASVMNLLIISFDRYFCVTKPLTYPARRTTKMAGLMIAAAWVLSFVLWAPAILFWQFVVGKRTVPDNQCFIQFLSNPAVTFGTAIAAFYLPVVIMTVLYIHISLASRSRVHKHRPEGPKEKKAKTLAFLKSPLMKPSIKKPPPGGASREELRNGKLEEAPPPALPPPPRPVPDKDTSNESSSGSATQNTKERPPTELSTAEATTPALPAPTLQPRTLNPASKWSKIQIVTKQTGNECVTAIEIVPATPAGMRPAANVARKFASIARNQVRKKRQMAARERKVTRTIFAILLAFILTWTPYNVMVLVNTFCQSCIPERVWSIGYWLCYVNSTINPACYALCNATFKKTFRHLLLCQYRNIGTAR
Summary of the method: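 CHO cells expressing hM4 or rM4 were serum-starved 4 h, then given compound (ten-point curve, 10 μM top, duplicate) with an EC20 of acetylcholine (10 nM final) for 5 min at 37° C. Phospho-ERK in lysates was detected by TR-FRET.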

[1] = tested on: AMP-evoked hyperlocomotion; test: Amphetamine-evoked hyperlocomotion in rats (open field); format: in vivo; settings: adult male Sprague Dawley rats; 0.5 mg/kg amphetamine s.c.; distance traveled during the last 60 minutes of the 90-minute session
Method: Compounds may be tested for ability to impact behavior activity of rats according to the following procedures. Animals: Adult male, Sprague Dawley rats (Envigo, Indianapolis, IN, USA) are housed in a colony maintained at 23° C. with 12 h light/dark cycles (lights on at 0600 hours). All animals weigh 290-330 g at the beginning of the study and are equally divided into 5 groups (n=8 per group) and received one of the treatment conditions listed below. Behavioral Procedures: Studies are conducted in MedAssociates open field chambers (27.3 cm×27.3 cm×20.3 cm, MedAssociates, St. Albans, VT) in which movement is automatically tracked and recorded by 16 beam arrays. The administration pretreatment of the test article is determined to coincide with Tmax at the time of the amphetamine-evoked session with optimal route of administration. All groups are subcutaneously treated with 0.5 mg/kg amphetamine (AMP). The test article is tested in three dose groups with a half-log increase between doses. […] Locomotor data (distance traveled) is recorded as 5-minute bins throughout the 90-minute session. […] Statistical Analysis: Spontaneous locomotion (prior to AMP administration) is calculated as the total distance traveled during the first 30 minutes of the experimental session. AMP-evoked responses are calculated as the total distance traveled during the last 60 minutes of the experimental session which commenced immediately after AMP administration. Locomotor data may be analyzed by a one-way ANOVA. When there is a significant overall ANOVA, post hoc comparisons may be made by Dunnett's test with statistical significance determined as p<0.05. […] Behavioral Procedures: Studies were conducted in MedAssociates open field chambers (27.3 cm×27.3 cm×20.3 cm, MedAssociates, St. Albans, VT) in which movement was automatically tracked and recorded by 16 beam arrays. Administration pretreatment of the test article was determined to coincide with Tmax at the time of the amphetamine-evoked session with optimal route of administration. […]

EC50 (rM4 receptors) [nM]	Structure (SMILES)	Dose Amount of Compound at which rats displayed a reduction in amphetamine-evoked hyperlocomotion activity [1] [mg/kg]
500 to 2000	Cc1c2c(n(C)c(=O)c1Cl)CN(C(=O)c1cnn(C(F)(F)F)c1)C2 [Compound I-1, 3-chloro-1,4-dimethyl-6-(1-(Trifluoromethyl)-1H-pyrazole-4-carbonyl)-1,5,6,7-tetrahydro-2H-pyrrolo[3,4-b]pyridin-2-one]	32
100 to 500	Cc1c2c(n(C)c(=O)c1Cl)CN(C(=O)c1cnn(C(F)(F)F)c1)[C@@H]2C [Compound I-76, (R)-3-Chloro-1,4,5-trimethyl-6-(1-(trifluoromethyl)-1H-pyrazole-4-carbonyl)-1,5,6,7-tetrahydro-2H-pyrrolo[3,4-b]pyridin-2-one]	3.2
> 2000	COc1c2c(n(C)c(=O)c1C)CN(C(=O)c1cnn(C(F)(F)F)c1)C2 [Compound I-87]	32
